Measured values taken from the NIST ThermoML archive (doi:10.1016/j.fluid.2011.11.022).

Assay: wn = mass fraction of the nth substance listed
Conditions: Liquid, w2 = 0.5; for mass density: Buoyancy - hydrostatic balance; for viscosity: Falling or rolling sphere viscometry

OCCOCCO [diethylene glycol] + OCCO
Conditions | mass density [kg/m3] | viscosity [mPa·s]
298.15 K, 98 kPa | 1112.21 | 21.12
298.15 K, 49030 kPa | 1135.06 | 28.23
298.15 K, 98060 kPa | 1151.37 | 36.95
298.15 K, 196130 kPa | 1178.94 | 60.47
322.33 K, 49030 kPa | 1121.67 | 10.74
322.34 K, 98 kPa | 1097.38 | 8.316
332.21 K, 196130 kPa | 1162.18 | 20.76
332.33 K, 98060 kPa | 1132.91 | 13.57
353.8 K, 196130 kPa | 1150.15 | 7.683
353.83 K, 98 kPa | 1075.19 | 3.488
353.87 K, 49030 kPa | 1101.62 | 4.407
354.1 K, 98060 kPa | 1119.74 | 5.334
392.87 K, 98 kPa | 1043.14 | 1.641
393.06 K, 49030 kPa | 1072.66 | 1.986
393.3 K, 98060 kPa | 1093.17 | 2.36
393.6 K, 196130 kPa | 1126.12 | 3.232
435.93 K, 49030 kPa | 1035.82 | 1.09
435.98 K, 98060 kPa | 1060.12 | 1.293
436.08 K, 98 kPa | 1001.82 | 0.885
436.13 K, 196130 kPa | 1097.25 | 1.731
462.52 K, 98060 kPa | 1037.39 | 0.989
462.54 K, 196130 kPa | 1077.67 | 1.313
462.73 K, 49030 kPa | 1011.05 | 0.791
462.75 K, 98 kPa | 973.24 | 0.671

OCCOCCOCCO [triethylene glycol] + OCCO
Conditions | mass density [kg/m3] | viscosity [mPa·s]
298.13 K, 98 kPa | 1115.1 | 26.24
298.15 K, 49030 kPa | 1136.47 | 35.89
298.15 K, 98060 kPa | 1152.73 | 48.05
298.15 K, 196130 kPa | 1180.8 | 82.26
322 K, 196130 kPa | 1169.4 | 27.05
322.25 K, 98060 kPa | 1139.05 | 17.16
322.32 K, 49030 kPa | 1121.83 | 13.34
322.36 K, 98 kPa | 1101.75 | 10.13
355.34 K, 98 kPa | 1079 | 3.999
355.56 K, 49030 kPa | 1099.04 | 5.082
355.67 K, 98060 kPa | 1118.11 | 6.302
355.76 K, 196130 kPa | 1151.43 | 9.251
392.2 K, 98 kPa | 1047.37 | 1.946
392.33 K, 49030 kPa | 1070.25 | 2.418
392.39 K, 98060 kPa | 1092.45 | 2.907
392.77 K, 196130 kPa | 1129.25 | 4.045
434.54 K, 98060 kPa | 1059.58 | 1.581
434.56 K, 49030 kPa | 1032.55 | 1.33
434.59 K, 98 kPa | 1002.88 | 1.058
434.7 K, 196130 kPa | 1101.01 | 2.158
462.27 K, 196130 kPa | 1080.63 | 1.616
462.4 K, 49030 kPa | 1004.97 | 0.996
462.47 K, 98060 kPa | 1035.79 | 1.196
462.61 K, 98 kPa | 968.72 | 0.705

OCCOCCOCCO [triethylene glycol] + OCCOCCO
Conditions | mass density [kg/m3] | viscosity [mPa·s]
298.15 K, 98 kPa | 1116.28 | 32.4
298.15 K, 49030 kPa | 1140.16 | 48.05
298.15 K, 98060 kPa | 1157.54 | 68.97
298.15 K, 196130 kPa | 1186.23 | 134.9
322.18 K, 196130 kPa | 1172.01 | 39.19
322.32 K, 98060 kPa | 1143.4 | 22.33
322.38 K, 49030 kPa | 1125.8 | 16.39
322.43 K, 98 kPa | 1104.5 | 11.71
355.15 K, 98 kPa | 1083.98 | 4.468
355.59 K, 49030 kPa | 1103.74 | 5.935
355.77 K, 98060 kPa | 1122.4 | 7.663
355.95 K, 196130 kPa | 1151.5 | 12.1
391.02 K, 98 kPa | 1055.33 | 2.179
391.29 K, 49030 kPa | 1076.96 | 2.772
391.39 K, 98060 kPa | 1098.19 | 3.484
391.57 K, 196130 kPa | 1129.2 | 5.188
432.13 K, 98 kPa | 1014.59 | 1.172
432.65 K, 98060 kPa | 1067.76 | 1.884
432.68 K, 196130 kPa | 1102.63 | 2.658
432.76 K, 49030 kPa | 1041.87 | 1.51
472.77 K, 196130 kPa | 1075.84 | 1.747
472.82 K, 98060 kPa | 1035.69 | 1.236
473.06 K, 49030 kPa | 1003.66 | 1.008
473.1 K, 98 kPa | 965.58 | 0.716
